Experimental findings from patent US20240228460A1, “PROTEASE INHIBITORS AND METHODS OF MAKING SAME” (priority 2022, published 2024) are described below.

Read-outs that look alike come from different tables or passages of the source.

The target of assay [1] is SARS-CoV-2 M^pro protease (Severe acute respiratory syndrome coronavirus 2 (2019-nCoV) (SARS-CoV-2), UniProt P0DTD1). Briefly: Fluorogenic enzymatic assay, SARS-CoV-2 Mpro inhibition. It counts as biochemical. As to conditions: quenched DABCYL/EDANS peptide substrate.
For a further assay, the target named is cathepsin L (Homo sapiens (Human), UniProt P07711). Briefly: Cathepsin L inhibition assay (Z-LR-AMC fluorogenic substrate). The format is biochemical. As for the experimental part:
Assays to evaluate the inhibition of cathepsin L contained 25 pM cathepsin L (RD systems: 952-CY-010), 5 uM Z-LR-AMC fluorogenic peptide substrate, 100 nL of test compound in 100% DMSO, in a total of 10 uL of 20 mM KPO4, pH 6.0, 150 mM NaCl, 0.005% Tween20, 5 mM DTT in black low volume 384-well plates. The production of AMC (7-amino-4-methylcoumarin) was followed at 5 min intervals at 355 nm excitation, 460 nm emission in an Envision microplate reader (PerkinElmer). Reaction rates were determined by linear regression of the resulting progress curves. Rates were normalized to % inhibition, where 0% is equal to the rate in the presence of enzyme, and 100% is equal to the rate in the absence of enzyme. Nonlinear regression fits of the data to a one-site dose response curve were performed using XLFit (IDBS). […]

For a further assay, the target named is SARS-CoV-2 M^pro (Severe acute respiratory syndrome coronavirus 2 (2019-nCoV) (SARS-CoV-2), UniProt P0DTD1). Briefly: biochemical. As to conditions: 20 nM M^pro, 10 uM substrate, 1 hr, HPLC product peak area; read-out: IC50 against SARS-CoV-2 M^pro, HPLC-confirmed.
[2] abbreviates: 25 pM cathepsin L, 5 uM Z-LR-AMC, pH 6.0, read-out: IC50 Cathepsin L.

One may read the IC50 as the concentration at which inhibition is half-maximal.

Sequence of cathepsin L (P07711 114-333): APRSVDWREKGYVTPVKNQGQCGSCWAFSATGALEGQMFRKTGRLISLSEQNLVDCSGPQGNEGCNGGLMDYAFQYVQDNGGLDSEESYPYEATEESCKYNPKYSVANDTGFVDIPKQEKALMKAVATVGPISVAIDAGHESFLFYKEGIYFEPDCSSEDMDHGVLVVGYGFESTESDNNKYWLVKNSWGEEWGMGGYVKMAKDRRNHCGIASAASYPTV

Take `O=C(NCC(NC(=O)C1COc2ccccc21)c1ccccc1)c1cccc2cnsc12` (stereo not drawn) [(106)]: the IC50 in assay [1] turned out to be 8.9 µM; at cathepsin L (setting [2]) it was 10.2 µM; at SARS-CoV-2 M^pro, 28 µM. In assay [1], `O=C(NCC(NC(=O)c1cncc2[nH]ccc12)c1ccc2ccccc2c1)c1ccsc1` (stereo not drawn) [(107)] registered an IC50 of 19.2 µM. Regarding `CC(C)C[C@H](NC(=O)OCc1ccccc1)C(=O)N[C@@H](CC1CCNC1=O)C(O)S(=O)(=O)O` (stereo partly drawn) [GC-376, reference compound], the IC50 on cathepsin L (positive control tested in parallel, read-out: IC50 cathepsin L (positive control)) came to 0.002 µM.

For `Cc1cc[nH]c(=O)c1C(=O)NC[C@H](NC(=O)c1cncc2ccccc12)c1ccc2ccccc2c1` (single isomer, unassigned) [(103)], the IC50 in assay [1] worked out at 71.2 µM; on cathepsin L (setting [2]) it was 36.8 µM. In the case of `Cc1cc[nH]c(=O)c1C(=O)NC[C@H](NC(=O)c1cncc2ccccc12)c1ccc2ccccc2c1` (single isomer, unassigned) [(102)], the IC50 came out at 1.6 µM in assay [1] and 47.8 µM at cathepsin L (setting [2]).

In assay [1], `CC(=O)c1c(C)[nH]c(C(=O)N[C@H](CNC(=O)c2ccc(F)c3ccccc23)c2ccccc2)c1C` [(108), (S)-4-acetyl-N-(2-(4-fluoro-1-naphthamido)-1-phenylethyl)-3,5-dimethyl-1H-pyrrole-2-carboxamide] displayed an IC50 of 32.2 µM. Molecule `Cc1cc(C(=O)NC(CNC(=O)c2cccc3sncc23)c2ccc3ccccc3c2)cc(=O)[nH]1` (stereo not drawn) [(104)] registered an IC50 in assay [1] of 47.8 µM. In turn, `O=C(NCC(NC(=O)c1cncc2sccc12)c1ccc2ccccc2c1)c1cc(O)cc(O)c1` (stereo not drawn) [(105)] gave an IC50 in assay [1] of 61.3 µM. With `Cc1cc[nH]c(=O)c1C(=O)NCC(NC(=O)c1cncc2ccccc12)c1ccc2ccccc2c1` (racemic) [(101), N-{2-[(2-hydroxy-4-methylpyridin-3-yl)formamido]-1-(naphthalen-2-yl)ethyl}isoquinoline-4-carboxamide], the IC50 in assay [1] was 1.7 µM; on cathepsin L (setting [2]), above 100 µM; on SARS-CoV-2 M^pro it was 5.4 µM.
